Test results taken from PMC6277767, “Broad and Region-Specific Impacts of the Synthetic Cannabinoid CP 55,940 in Adolescent and Adult Female Mouse Brains” (Frontiers in Molecular Neuroscience, 2018).

Tested on: CD1 female mouse brain lipidome
Experiment: Brain-region lipid levels (HPLC/MS/MS lipidomics) 2 h after single i.p. 3 mg/kg CP 55,940 vs vehicle
Format: in vivo
Settings: brainstem
Protocol: The Bloomington Institutional Animal Care and Use Committee of Indiana University reviewed and approved the animal procedures. Female mice from the CD1 strain were utilized to match our study examining THC’s effects on the brain lipidome ([Leishman et al., 2018]). Mice were given a single i.p. injection of either 3 mg/kg CP or 1:1:18 cremophor:ethanol:saline vehicle (please refer to the section “3 mg/kg CP Is Relevant for Synthetic Cannabinoid Abuse and Has Stronger Effects on the Female Mouse Brain Lipidome During Adolescence” for a justification of dose and use of female mice). Three different age groups were given injections: PND 35 and PND 50 adolescents, and adult mice (PND 113). At least eight mice in each age group received CP and at least eight received vehicle. Matching the THC study time course ([Leishman et al., 2018]), mice were sacrificed via rapid decapitation 2 h after injection. Brains were immediately removed and flash-frozen in liquid nitrogen, and then stored at -80°C until dissections were performed. Brains were dissected on an ice-cold dissection plate into the following regions: STR, HIPP, CER, THAL, CTX, HYP, MID, and STEM. These abbreviations for these brain areas will be used exclusively when discussing the results generated by these specific dissections. Each dissected area was immediately placed in liquid nitrogen and then stored at -80°C until used for lipid extraction.
Tissue extracts were performed as previously described ([Bradshaw et al., 2006]; [Stuart et al., 2013]; [Raboune et al., 2014]; [Leishman et al., 2016a],[b], [2017], [2018]). First, samples were shock frozen in liquid nitrogen, weighed, and transferred to a centrifuge tube. The mass of the largest sample was multiplied by 50 to determine how many milliliters of HPLC-grade methanol (Fisher, Fair Lawn, NJ, United States) to add. Then, samples were spiked with 500 pmol deuterium-labeled NAGly (d8NAGly; Cayman Chemical, Ann Arbor, MI, United States). Samples were placed on ice in darkness for 2 h then individually homogenized and centrifuged at 19,000 × g for 20 min at 20°C. Supernatants were diluted with HPLC water (purified in house) to make a solution of 75% water, 25% supernatant. Lipids were partially purified on C18 solid phase extraction columns (Agilent, Palo Alto, CA, United States). A series of four elutions with 1.5 mL of 60%, 75%, 85%, and 100% methanol were collected ([Stuart et al., 2013]; [Leishman et al., 2016a],[b], [2018]).
As previously described ([Bradshaw et al., 2006]; [Tan et al., 2006]; [Smoum et al., 2010]; [Stuart et al., 2013]; [Tortoriello et al., 2013]; [Raboune et al., 2014]; [Leishman et al., 2016a],[b], [2017], [2018]), samples were analyzed using an Applied Biosystems API 3000 triple quadrupole mass spectrometer with electrospray ionization (Foster City, CA, United States). Using an Agilent XDB-C18 reversed phase analytical column and optimized mobile phase gradients, 20 μL from each elution were chromatographed. Two Shimadzu 10ADvp pumps (Columbia, MD, United States) provided the pressure for gradient elution. Mobile phase A: 20% methanol, 80% water (v/v) and 1 mM ammonium acetate (Sigma, St. Louis, MO, United States). Mobile phase B: 100% methanol, 1 mM ammonium acetate. Every method run began with 0% mobile phase B, reached 100% mobile phase B flowing at 0.2 mL/min, and gradually returned to 0% mobile phase B.
This screening library will be referred to as the lipidome when discussing data from this study. HPLC/MS/MS data were analyzed using Analyst software (Applied Biosystems) ([Bradshaw et al., 2006]; [Tan et al., 2006]; [Stuart et al., 2013]; [Tortoriello et al., 2013]; [Raboune et al., 2014]; [Leishman et al., 2016a],[b], [2017], [2018]). Chromatograms (Supplementary Figure 3) were generated by determining the retention time of analytes from the analytical column with a [M-1] or [M+1] parent peak and a fragmentation peak corresponding to the programmed values. […]

[1] = PND 50, 3 mg/kg CP 55,940, one-way ANOVA p .000
[2] = PND 50, 3 mg/kg CP 55,940, one-way ANOVA p .001
[3] = PND 50, 3 mg/kg CP 55,940, one-way ANOVA p .002
[4] = PND 50, 3 mg/kg CP 55,940, one-way ANOVA p .003
[5] = PND 50, 3 mg/kg CP 55,940, one-way ANOVA p .006
[6] = PND 50, 3 mg/kg CP 55,940, one-way ANOVA p .007
[7] = PND 50, 3 mg/kg CP 55,940, one-way ANOVA p .008
[8] = PND 50, 3 mg/kg CP 55,940, one-way ANOVA p .014
[9] = PND 50, 3 mg/kg CP 55,940, one-way ANOVA p .015
[10] = PND 50, 3 mg/kg CP 55,940, one-way ANOVA p .018
[11] = PND 50, 3 mg/kg CP 55,940, one-way ANOVA p .023
[12] = PND 50, 3 mg/kg CP 55,940, one-way ANOVA p .041
[13] = PND 50, 3 mg/kg CP 55,940, one-way ANOVA p .043

CCCCCCC(C)(C)c1ccc([C@@H]2C[C@H](O)CC[C@H]2CCCO)c(O)c1 [CP 55,940]
N-palmitoyl methionine level, Mean (PND 50, 3 mg/kg CP 55,940): 7.37E-13
N-palmitoyl phenylalanine level, Mean (PND 50, 3 mg/kg CP 55,940): 1.09E-12
N-palmitoyl proline level, Mean (PND 50, 3 mg/kg CP 55,940): BDL
N-palmitoyl serine level, Mean (PND 50, 3 mg/kg CP 55,940): 2E-11
N-palmitoyl tryptophan level, Mean (PND 50, 3 mg/kg CP 55,940): BDL
N-palmitoyl tyrosine level, Mean (PND 50, 3 mg/kg CP 55,940): 5.77E-13
N-palmitoyl valine level, Mean (PND 50, 3 mg/kg CP 55,940): 1.73E-13
N-stearoyl GABA level, Mean (PND 50, 3 mg/kg CP 55,940): 7.1E-12
N-stearoyl alanine level, Mean (PND 50, 3 mg/kg CP 55,940): 1.5E-12
N-stearoyl ethanolamine level, Mean (PND 50, 3 mg/kg CP 55,940): 2.63E-11
N-stearoyl glycine level, Mean (PND 50, 3 mg/kg CP 55,940): 4.43E-12
N-stearoyl leucine level, Mean (PND 50, 3 mg/kg CP 55,940): 7.24E-13
N-stearoyl methionine level, Mean (PND 50, 3 mg/kg CP 55,940): 8.45E-13
N-stearoyl phenylalanine level, Mean (PND 50, 3 mg/kg CP 55,940): 9.56E-13
N-stearoyl proline level, Mean (PND 50, 3 mg/kg CP 55,940): BDL
N-stearoyl serine level, Mean (PND 50, 3 mg/kg CP 55,940): 3.14E-11
N-stearoyl tryptophan level, Mean (PND 50, 3 mg/kg CP 55,940): BDL
N-stearoyl tyrosine level, Mean (PND 50, 3 mg/kg CP 55,940): 7.69E-14
Oleic acid level, Mean (PND 50, 3 mg/kg CP 55,940): 1.94E-10
PGE2 level, Mean (PND 50, 3 mg/kg CP 55,940): 1.11E-10
PhosphoLEA level, Mean (PND 50, 3 mg/kg CP 55,940): 7.34E-13
THC level, Mean (PND 50, 3 mg/kg CP 55,940): BDL
N-arachidonoyl GABA Direction (relative to Veh) [1]: ↓
N-arachidonoyl GABA Magnitude (x Veh level) [1]: 0.68 x Veh level
PGF2α Direction (relative to Veh) [1]: ↓
PGF2α Magnitude (x Veh level) [1]: 0.74 x Veh level
N-palmitoyl leucine, Direction (relative to Veh) [2]: ↑
N-palmitoyl leucine, Magnitude (x Veh level) [2]: 1.44 x Veh level
6-ketoPGF1α Direction (relative to Veh) [3]: ↓
6-ketoPGF1α Magnitude (x Veh level) [3]: 0.70 x Veh level
N-arachidonoyl taurine Direction (relative to Veh) [4]: ↓
N-arachidonoyl taurine Magnitude (x Veh level) [4]: 0.83 x Veh level
N-palmitoyl tyrosine Magnitude (x Veh level) [5]: 1.23 x Veh level
N-palmitoyl tyrosine, Direction (relative to Veh) [5]: ↑
N-arachidonoyl tyrosine, Direction (relative to Veh) [6]: ↓
N-arachidonoyl tyrosine, Magnitude (x Veh level) [6]: 0.74 x Veh level
N-arachidonoyl serine Direction (relative to Veh) [7]: ↓
N-arachidonoyl serine Magnitude (x Veh level) [7]: 0.80 x Veh level
PGE2 Direction (relative to Veh) [8]: ↓
PGE2 Magnitude (x Veh level) [8]: 0.73 x Veh level
2-linoleoyl glycerol Direction (relative to Veh) [9]: ↓
2-linoleoyl glycerol Magnitude (x Veh level) [9]: 0.74 x Veh level
Oleic acid, Direction (relative to Veh) [10]: ↓
Oleic acid, Magnitude (x Veh level) [10]: 0.84 x Veh level
N-arachidonoyl phenylalanine, Direction (relative to Veh) [11]: ↑
N-arachidonoyl phenylalanine, Magnitude (x Veh level) [11]: 1.40 x Veh level
N-oleoyl methionine, Direction (relative to Veh) [12]: ↓
N-oleoyl methionine, Magnitude (x Veh level) [12]: 0.68 x Veh level
Linoleic acid, Direction (relative to Veh) [13]: ↓
Linoleic acid, Magnitude (x Veh level) [13]: 0.81 x Veh level
2-oleoyl glycerol, Direction (relative to Veh) (PND 50, 3 mg/kg CP 55,940, one-way ANOVA p .046): ↓
